Reference: US11939361B2, “Compositions of peptide inhibitors of Interleukin-23 receptor” (Janssen Pharmaceutica NV, priority 2020, dated 2024)

Assay: Rat PK Study 1: intraduodenal/intracolonic dosing with absorption enhancers
Format: in vivo, Sprague Dawley rats
Conditions: male, Sprague Dawley, plasma, 10 mg/kg
Protocol: In this Example, a screen of various absorption enhancers was assessed. […] The following absorption enhancers were tested: sodium caprate (NaCl0), sodium salcaprozate (SNAC), sucrose laureate, Peptelligence (proprietary technology from Enteris Pharma-undisclosed composition) and Labrasol. The solutions were dosed by intracolonic (IC) or intraduodenal (ID) injection to rats. […] NaCl0 gave the highest systemic exposure followed by Peptelligence, then Labrasol, then SNAC, and finally sucrose laureate. Accordingly, sodium caprate was determined to be a preferred absorption enhancer. […] Therefore, the systemic exposure is likely to be high enough to afford systemic activity.
The following absorption enhancers were evaluated: sodium caprate (NaCl0, 100 mg/kg), SNAC (100 mg/kg), sucrose laurate (100 mg/kg), Enteris A (proprietary technology of Enteris Pharma) (60 mg/kg), and Labrasol (100 mg/kg).

[1] = other: intracolonic, IC dose 10 mg/kg, Enteris A 60 mg/kg
[2] = other: intracolonic, IC dose 10 mg/kg, Labrasol 100 mg/kg
[3] = other: intracolonic, IC dose 10 mg/kg, NaC10 100 mg/kg
[4] = other: intracolonic, IC dose 10 mg/kg, SNAC 100 mg/kg
[5] = other: intracolonic, IC dose 10 mg/kg, Sucrose laurate 100 mg/kg
[6] = other: intracolonic, IC dose 10 mg/kg, no absorption enhancer
[7] = other: intraduodenal, ID dose 10 mg/kg, Enteris A 60 mg/kg
[8] = other: intraduodenal, ID dose 10 mg/kg, Labrasol 100 mg/kg
[9] = other: intraduodenal, ID dose 10 mg/kg, NaC10 100 mg/kg
[10] = other: intraduodenal, ID dose 10 mg/kg, SNAC 100 mg/kg
[11] = other: intraduodenal, ID dose 10 mg/kg, Sucrose laurate 100 mg/kg
[12] = other: intraduodenal, ID dose 10 mg/kg, no absorption enhancer

CC(=O)NCCCC[C@@H]1NC(=O)[C@H](Cc2c[nH]c3c(C)cccc23)NC(=O)[C@H]([C@@H](C)O)NC(=O)[C@H](CC(N)=O)NC(=O)[C@@H](NC(C)=O)C(C)(C)SSC(C)(C)[C@@H](C(=O)N[C@@H](Cc2ccc(OCCN)cc2)C(=O)N[C@@H](Cc2ccc3ccccc3c2)C(=O)NC2(C(=O)N[C@@H](CCC(=O)O)C(=O)N[C@@H](CC(N)=O)C(=O)N[C@@H](Cc3cccnc3)C(=O)N(C)CC(N)=O)CCOCC2)NC1=O [SEQ ID NO: 1, Ac-[Pen]*—N-T-[W(7-Me)]-[Lys(Ac)]-[Pen]*-Phe[4-(2-aminoethoxy)]-[2-Nal]-[THP]-E-N-[3-Pal]-Sarc-NH2]
AUC(0-inf) [1]: 567 ng·h/mL | AUC(0-t) [1]: 561 ng·h/mL | Cmax [1]: 626 ng/mL | Tmax [1]: 15 min | AUC(0-inf) [2]: 1110 ng·h/mL | AUC(0-t) [2]: 1100 ng·h/mL | Cmax [2]: 976 ng/mL | Tmax [2]: 15 min | AUC(0-inf) [3]: 1210 ng·h/mL | AUC(0-t) [3]: 1210 ng·h/mL | Cmax [3]: 1030 ng/mL | Tmax [3]: 20 min | AUC(0-inf) [4]: 312 ng·h/mL | AUC(0-t) [4]: 309 ng·h/mL | Cmax [4]: 309 ng/mL | Tmax [4]: 20 min | AUC(0-inf) [5]: 179 ng·h/mL | AUC(0-t) [5]: 176 ng·h/mL | Cmax [5]: 191 ng/mL | Tmax [5]: 15 min | Cmax [6]: 4.99 ng/mL | Tmax [6]: 35 min | AUC(0-inf) [7]: 964 ng·h/mL | AUC(0-t) [7]: 958 ng·h/mL | Cmax [7]: 988 ng/mL | Tmax [7]: 15 min | AUC(0-inf) [8]: 621 ng·h/mL | AUC(0-t) [8]: 617 ng·h/mL | Cmax [8]: 625 ng/mL | Tmax [8]: 15 min | AUC(0-inf) [9]: 1190 ng·h/mL | AUC(0-t) [9]: 1190 ng·h/mL | Cmax [9]: 1220 ng/mL | Tmax [9]: 15 min | AUC(0-inf) [10]: 215 ng·h/mL | AUC(0-t) [10]: 210 ng·h/mL | Cmax [10]: 209 ng/mL | Tmax [10]: 15 min | AUC(0-inf) [11]: 145 ng·h/mL | AUC(0-t) [11]: 141 ng·h/mL | Cmax [11]: 107 ng/mL | Tmax [11]: 15 min | AUC(0-inf) [12]: 68.6 ng·h/mL | Cmax [12]: 23.1 ng/mL | Tmax [12]: 40 min | AUC(0-t) (other: intraduodenal, ID dose 10 mg/kg, no absorption enhancer, last time point 2, 4, 6, 8, or 24 hours): 62 ng·h/mL
